pIC50: −log10 of the molar value.
Biological target: T1, Human full-length Hsp90 (Homo sapiens, UniProt P08238)
T1 construct: E. coli expressed human full-length HSP90 protein, purified >95%; made in house; host or cells: E. coli
Assay: Fluorescence polarization assay (competitive binding to HSP90, probe RBT0045864-FAM)
Settings: fluorescence polarization assay, activity range; read-out: Hsp90 FP IC50
Protocol: Fluorescence Polarization Assay
Fluorescence polarization {also known as fluorescence anisotropy} measures the rotation of a fluorescing species in solution, where the larger molecule the more polarized the fluorescence emission. When the fluorophore is excited with polarized light, the emitted light is also polarized. The molecular size is proportional to the polarization of the fluorescence emission.
The fluoroscein-labelled probe—RBT0045864-FAM—
Test compound is added to the assay plate, left to equilibrate and the anisotropy measured again. Any change in anisotropy is due to competitive binding of compound to HSP90, thereby releasing probe.
Stored at room temperature. • 3) BSA (bovine serum albumen) 10 mg/ml (New England Biolabs #B9001S) • 4) 20 mM probe in 100% DMSO stock concentration. Stored in the dark at RT. Working concentration is 200 nM diluted in AR water and stored at 4° C. […] Protocol • 1) Add 100 μl 1× buffer to wells 11A and 12A (=FP BLNK) • 2) Prepare assay mix—all reagents are kept on ice with a lid on the bucket as the probe is light-sensitive.
This gives 2.5 mM {50×} stock cpd—assuming cpds 20 mM. • 4) Repeat for wells A2 to A10. Control in columns 11 and 12. • 5) Transfer 5 μl from row A to row B—not column 12. Mix well. • 6) Transfer 5 μl from row B to row C. […] Add 2 μl of 100 mM standard cpd to wells B12-H12 {is positive control} • 13) The Z′ factor is calculated from zero controls and positive wells.

T1 sequence (P08238 whole entry): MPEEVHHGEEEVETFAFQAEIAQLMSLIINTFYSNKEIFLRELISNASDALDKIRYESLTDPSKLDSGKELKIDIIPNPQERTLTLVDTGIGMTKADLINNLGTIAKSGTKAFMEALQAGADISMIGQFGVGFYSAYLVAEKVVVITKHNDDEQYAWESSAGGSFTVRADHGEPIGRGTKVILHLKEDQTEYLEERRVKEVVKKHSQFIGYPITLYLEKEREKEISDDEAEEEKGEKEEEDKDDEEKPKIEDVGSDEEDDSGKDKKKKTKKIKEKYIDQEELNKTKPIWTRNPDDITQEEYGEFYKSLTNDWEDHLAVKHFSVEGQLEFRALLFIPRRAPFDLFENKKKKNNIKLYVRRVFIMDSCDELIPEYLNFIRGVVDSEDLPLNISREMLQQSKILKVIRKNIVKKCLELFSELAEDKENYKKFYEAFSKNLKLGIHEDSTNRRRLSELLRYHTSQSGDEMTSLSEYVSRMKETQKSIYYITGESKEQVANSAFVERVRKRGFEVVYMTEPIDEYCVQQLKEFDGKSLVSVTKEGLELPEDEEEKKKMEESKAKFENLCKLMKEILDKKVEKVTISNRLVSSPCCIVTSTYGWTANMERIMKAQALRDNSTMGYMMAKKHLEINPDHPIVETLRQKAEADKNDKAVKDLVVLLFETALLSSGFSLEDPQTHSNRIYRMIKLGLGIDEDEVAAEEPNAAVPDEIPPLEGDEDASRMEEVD

pIC50 | SMILES
> 5.00 | Nc1nc(-c2ccc(Cl)cc2Cl)c2cc(C(=O)NCCCS(=O)(=O)O)sc2n1 [Example 144]
> 5.00 | Nc1nc(-c2ccc(Cl)cc2Cl)c2cc(C(=O)NCC(O)CO)sc2n1 (stereo not drawn) [Example 128]
> 5.00 | CCNC(=O)c1cc2c(/C=C/c3ccccc3)nc(N)nc2s1 [Example 286]
> 5.00 | CCNC(=O)c1cc2c(-c3cc(CNCc4ccccc4)ccc3C)nc(N)nc2s1 [Example 200]
< 5.00 | COC(=O)c1cc2c(Nc3ccccc3)nc(N)nc2s1 [Example 21]
> 5.00 | CCNC(=O)c1cc2c(-c3cc(OCCn4ccnc4)c(Cl)cc3Cl)nc(N)nc2s1 [Example 263]
> 5.00 | CCNC(=O)c1cc2c(C(C)c3ccccc3)nc(N)nc2s1 (stereo not drawn) [Example 287]
< 5.00 | CNC(=O)c1cc2c(Oc3ccccc3)nc(N)nc2s1 [Example 27]
> 5.00 | Nc1nc(-c2ccc(Cl)cc2Cl)c2cc(C(=O)NCc3ccc(F)cc3)sc2n1 [Example 120]
> 5.00 | CCOC(=O)c1cc2c(-c3ccc(CC)cc3Cl)nc(N)nc2s1 [Example 175]
> 5.00 | CCOC(=O)c1cc2c(-c3ccc(C#N)cc3)nc(N)nc2s1 [Example 16]
> 5.00 | CC(C)C[C@H](NC(=O)c1cc2c(-c3ccc(Cl)cc3Cl)nc(N)nc2s1)C(N)=O [Example 161]
> 5.00 | Nc1nc(-c2ccc(Cl)cc2Cl)c2cc(C(=O)N3CCC(N)C3)sc2n1 (stereo not drawn) [Example 159]
> 5.00 | CC(C)(NC(=O)c1cc2c(-c3ccc(Cl)cc3Cl)nc(N)nc2s1)c1ccccc1 [Example 140]
> 5.00 | C=Cc1ccc(-c2nc(N)nc3sc(C(=O)NCC)cc23)c(C)c1 [Example 171]
> 5.00 | CC(C)NC(=O)c1cc2c(-c3ccccc3)nc(N)nc2s1 [Example 56]
> 5.00 | CCOC(=O)c1cc2c(-c3ccccc3Br)nc(N)nc2s1 [Example 97]
> 5.00 | CCOC(=O)c1cc2c(C(=O)c3ccccc3)nc(N)nc2s1 [Example 296]

pIC50 | SMILES
> 5.00 | Nc1nc(-c2ccc(Cl)cc2Cl)c2cc(C(=O)Nc3ccc(S(=O)(=O)O)cc3)sc2n1 [Example 112]
< 5.00 | Nc1nc(-c2ccccc2)c2cc(C(=O)NCCc3ccccc3)sc2n1 [Example 49]
> 5.00 | CCOC(=O)c1cc2c(-c3cncc4ccccc34)nc(N)nc2s1 [Example 293]
< 5.00 | CCOC(=O)c1cc2c(-c3ccc(CN4CCCC4)cc3)nc(N)nc2s1 [Example 30]
< 5.00 | CCOC(=O)c1cc2c(Nc3ccccc3)nc(N)nc2s1 [Example 28]
> 5.00 | CCOC(=O)c1cc2c(-c3ccc(C)cc3Cl)nc(N)nc2s1 [Example 79]
> 5.00 | CN(C)CCCNC(=O)c1cc2c(-c3ccc(Cl)cc3Cl)nc(N)nc2s1 [Example 102]
< 5.00 | CCCN(C)C(=O)c1cc2c(-c3ccc(C)cc3C)nc(N)nc2s1 [Example 93]
> 5.00 | CCNC(=O)c1cc2c(-c3cc(CNCc4cccs4)ccc3C)nc(N)nc2s1 [Example 201]
> 5.00 | CCOC(=O)c1cc2c(-c3ccc(C)cc3C)nc(N)nc2s1 [Example 34]
> 5.00 | Nc1nc(-c2ccc(Cl)cc2Cl)c2cc(C(=O)NCc3ccc(S(N)(=O)=O)cc3)sc2n1 [Example 116]
< 5.00 | Cc1ccc(-c2nc(N)nc3sc(C(=O)N4CCOCC4)cc23)c(C)c1 [Example 96]
> 5.00 | Nc1nc(-c2ccc(Cl)cc2Cl)c2cc(C(=O)Nc3ccccc3)sc2n1 [Example 107]
> 5.00 | Nc1nc(-c2ccccc2)c2cc(C(=O)NCCCO)sc2n1 [Example 53]
> 5.00 | CCNC(=O)c1cc2c(-c3cc(CNCCC(N)=O)ccc3C)nc(N)nc2s1 [Example 208]
> 5.00 | CCOC(=O)c1cc2c(C(=O)c3cc(C)ccc3C)nc(N)nc2s1 [Example 299]
> 5.00 | CCOC(=O)c1cc2c(CCc3ccccc3)nc(N)nc2s1 [Example 275, 2-Amino-4-phenethyl-thieno[2,3-d]pyrimidine-6-carboxylic acid ethyl ester]
> 5.00 | CCNC(=O)c1cc2c(-c3cccc(O)c3)nc(N)nc2s1 [Example 244]
